In patent US20070049593A1 (priority 2004, published 2007):
pIC50: −log10 of the molar value. Structures can show the parent of a compound that is named as a salt.

target: T1, HCV polymerase (Hepatitis C virus genotype 1b, UniProt P26663); assay: biochemical; design: species or system HCV BK strain
T1 construct: a region encoding NS5B (J Virol 1991 March, 65(3), 1105-13, 544 amino acids after deletion of 47 amino acids on the C-terminal); 6xHis (C); made in house; host or cells: Escherichia coli
T1 sequence (P26663 2420-2963): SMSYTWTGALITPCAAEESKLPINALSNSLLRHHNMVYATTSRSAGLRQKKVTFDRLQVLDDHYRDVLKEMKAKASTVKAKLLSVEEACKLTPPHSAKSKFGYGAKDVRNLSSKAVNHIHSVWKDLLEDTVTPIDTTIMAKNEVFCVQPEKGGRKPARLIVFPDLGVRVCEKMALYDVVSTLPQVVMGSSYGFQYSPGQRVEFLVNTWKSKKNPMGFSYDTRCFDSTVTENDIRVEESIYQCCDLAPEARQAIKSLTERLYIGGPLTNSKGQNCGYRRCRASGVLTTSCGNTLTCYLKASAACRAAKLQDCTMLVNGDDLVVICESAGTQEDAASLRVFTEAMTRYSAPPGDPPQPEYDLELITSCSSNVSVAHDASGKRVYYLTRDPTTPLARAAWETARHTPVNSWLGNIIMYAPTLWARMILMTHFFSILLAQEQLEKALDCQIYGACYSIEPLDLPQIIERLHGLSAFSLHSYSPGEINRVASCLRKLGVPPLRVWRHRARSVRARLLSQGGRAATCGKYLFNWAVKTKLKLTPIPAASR
Summary of the method: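 Recombinant HCV BK-strain NS5B (C-terminal 47 aa deleted, His6-tagged, E. coli), 0.5 μg/ml, run with 5 μg/ml in vitro-transcribed RNA template (polyU/3′X), ATP/GTP/CTP 50 μM, UTP 2 μM plus [3H]UTP, pH 7.5, 25° C, 90 min. TCA-precipitated RNA counted by scintillation; IC50 from activity with vs without compound.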

Structure (SMILES)	pIC50
O=C(O)c1ccc2c(C3CCCCC3)c3n(c2c1)CCOc1cccc(F)c1-3 [Example 2-484, 12-cyclohexyl-1-fluoro-6,7-dihydro-5-oxa-7a-azadibenzo[a,e]azulene-9-carboxylic acid]	> 7.00
CC(=O)N(CCN1CCCCC1)c1cccc2c1OCCn1c-2c(C2CCCCC2)c2ccc(C(=O)O)cc21 [Example 2-485, 4-{N-acetyl-N-[2-(piperidin-1-yl)ethyl]amino}-12-cyclohexyl-6,7-dihydro-5-oxa-7a-azadibenzo[a,e]azulene-9-carboxylic acid]	> 7.00
CN(CC(=O)N1CCCCC1)c1cccc2c1OCCn1c-2c(C2CCCCC2)c2ccc(C(=O)O)cc21 [Example 2-486, 12-cyclohexyl-4-{N-methyl-N-[2-oxo-2-(piperidin-1-yl)ethyl]amino}-6,7-dihydro-5-oxa-7a-azadibenzo[a,e]azulene-9-carboxylic acid]	> 7.00
COc1ccc2c(c1)OCCn1c-2c(C2CCCCC2)c2ccc(C(=O)NC3(C(=O)Nc4ccc(S(=O)(=O)O)cc4)CCC3)cc21 [Example 2-523, 4-({1-[(12-cyclohexyl-3-methoxy-6,7-dihydro-5-oxa-7a-azadibenzo[a,e]azulene-9-carbonyl)amino]cyclobutanecarbonyl}amino)benzenesulfonic acid]	> 7.00
COc1ccc2c(c1)OCCn1c-2c(C2CCCCC2)c2ccc(C(=O)N[C@@H](Cc3ccc(O)cc3)C3=NC(C)(C)C(=O)O3)cc21 [Example 2-524, N—[(S)-1-(4,4-dimethyl-5-oxo-4,5-dihydrooxazol-2-yl)-2-(4-hydroxyphenyl)ethyl]-12-cyclohexyl-3-methoxy-6,7-dihydro-5-oxa-7a-azadibenzo[a,e]azulene-9-carboxamide]	> 7.00
COc1ccc2c(c1)OCCn1c-2c(C2CCCCC2)c2ccc(C(=O)N[C@@H](Cc3ccc(OCc4ccccc4)cc3)c3n[nH]c(C)n3)cc21 [Example 2-525, N—[(S)-2-(4-benzyloxyphenyl)-1-(5-methyl-1H-1,2,4-triazol-3-yl)ethyl]-12-cyclohexyl-3-methoxy-6,7-dihydro-5-oxa-7a-azadibenzo[a,e]azulene-9-carboxamide]	> 7.00
COc1ccc2c(c1)OCCn1c-2c(C2CCCCC2)c2ccc(C(=O)N[C@@H](Cc3ccc(O)cc3)c3n[nH]c(C)n3)cc21 [Example 2-526, N—[(S)-2-(4-hydroxyphenyl)-1-(5-methyl-1H-1,2,4-triazol-3-yl)ethyl]-12-cyclohexyl-3-methoxy-6,7-dihydro-5-oxa-7a-azadibenzo[a,e]azulene-9-carboxamide]	> 7.00
CNC(=O)COc1ccc2[nH]c(C3(NC(=O)c4ccc5c(C6CCCCC6)c6n(c5c4)CCOc4cc(OC)ccc4-6)CCC3)nc2c1 [Example 2-527, N-[1-(5-methylcarbamoylmethoxy-1H-benzimidazol-2-yl)cyclobutyl]-12-cyclohexyl-3-methoxy-6,7-dihydro-5-oxa-7a-azadibenzo[a,e]azulene-9-carboxamide]	> 7.00
COc1ccc2c(c1)OCCn1c-2c(C2CCCCC2)c2ccc(C(=O)NC3(C(=O)Nc4ccc(/C=C(\C)C(=O)O)cc4)CCC3)cc21 [Example 2-528, (E)-3-[4-({1-[(12-cyclohexyl-3-methoxy-6,7-dihydro-5-oxa-7a-azadibenzo[a,e]azulene-9-carbonyl)amino]cyclobutanecarbonyl}amino)phenyl]-2-methylacrylic acid]	> 7.00
COc1ccc2c(c1)OCCn1c-2c(C2CCCCC2)c2ccc(C(=O)NC3(C(=O)Nc4ccc(/C(C)=C/C(=O)O)cc4)CCC3)cc21 [Example 2-529, (E)-3-[4-({1-[(12-cyclohexyl-3-methoxy-6,7-dihydro-5-oxa-7a-azadibenzo[a,e]azulene-9-carbonyl)amino]cyclobutanecarbonyl}amino)phenyl]but-2-enoic acid]	> 7.00
COc1ccc2c(c1)OCCn1c-2c(C2CCCCC2)c2ccc(C(=O)NC3(C(=O)Nc4ccc(/C=C/C(=O)O)cc4OCCOCc4ccccc4)CCC3)cc21 [Example 2-530, (E)-3-[3-(2-benzyloxyethoxy)-4-({1-[(12-cyclohexyl-3-methoxy-6,7-dihydro-5-oxa-7a-azadibenzo[a,e]azulene-9-carbonyl)amino]cyclobutanecarbonyl}amino)phenyl]acrylic acid]	> 7.00
COc1ccc2c(c1)OCCn1c-2c(C2CCCCC2)c2ccc(C(=O)NC3(C(=O)Nc4ccc(/C=C/C(=O)O)c(OC)c4)CCC3)cc21 [Example 2-531, (E)-3-[4-({1-[(12-cyclohexyl-3-methoxy-6,7-dihydro-5-oxa-7a-azadibenzo[a,e]azulene-9-carbonyl)amino]cyclobutanecarbonyl}amino)-2-methoxyphenyl]acrylic acid]	> 7.00
COC[C@](C)(NC(=O)c1ccc2c(C3CCCCC3)c3n(c2c1)CCOc1cc(OC)ccc1-3)C(=O)O [Example 2-532, (S)-2-[(12-cyclohexyl-3-methoxy-6,7-dihydro-5-oxa-7a-azadibenzo[a,e]azulene-9-carbonyl)amino]-3-methoxy-2-methylpropionic acid]	> 7.00
CCn1c([C@H](Cc2ccc(O)cc2)NC(=O)c2ccc3c(C4CCCCC4)c4n(c3c2)CCOc2cc(OC)ccc2-4)n[nH]c1=O [Example 2-533, N—[(S)-1-(4-ethyl-5-oxo-4,5-dihydro-1H-1,2,4-triazol-3-yl)-2-(4-hydroxyphenyl)ethyl]-12-cyclohexyl-3-methoxy-6,7-dihydro-5-oxa-7a-azadibenzo[a,e]azulene-9-carboxamide]	> 7.00
O=C(O)c1ccc2c(C3CCCCC3)c3n(c2c1)CCOc1c(-c2ccccc2/C=C/C(=O)N2CCCCC2)cccc1-3 [Example 2-534, 12-cyclohexyl-4-{2-[(E)-3-oxo-3-(piperidin-1-yl)propenyl]phenyl}-6,7-dihydro-5-oxa-7a-azadibenzo[a,e]azulene-9-carboxylic acid]	> 7.00
O=C(O)c1ccc2c(C3CCCCC3)c3n(c2c1)CCOc1c(-c2ccccc2CCC(=O)N2CCCCC2)cccc1-3 [Example 2-535, 12-cyclohexyl-4-{2-[3-oxo-3-(piperidin-1-yl)propyl]phenyl}-6,7-dihydro-5-oxa-7a-azadibenzo[a,e]azulene-9-carboxylic acid]	> 7.00
O=C(O)c1ccc2c(C3CCCCC3)c3n(c2c1)CCOc1c(-c2ccccc2CCCN2CCCCC2)cccc1-3 [Example 2-536, 12-cyclohexyl-4-{2-[3-(piperidin-1-yl)propyl]phenyl}-6,7-dihydro-5-oxa-7a-azadibenzo[a,e]azulene-9-carboxylic acid monohydrochloride]	> 7.00
COC[C@](C)(NC(=O)c1ccc2c(C3CCCCC3)c3n(c2c1)CCOc1cc(OC)ccc1-3)C(=O)Nc1ccc(/C=C/C(=O)O)cc1 [Example 2-537, (E)-3-{4-((S)-2-[(12-cyclohexyl-3-methoxy-6,7-dihydro-5-oxa-7a-azadibenzo[a,e]azulene-9-carbonyl)amino]-3-methoxy-2-methylpropionylamino}phenyl)acrylic acid]	> 7.00
COc1ccc2c(c1)OCCn1c-2c(C2CCCCC2)c2ccc(C(=O)N[C@@H](Cc3ccc(OCc4ccccc4)cc3)C3OCCO3)cc21 [Example 2-538, N—[(S)-2-(4-benzyloxyphenyl)-1-(1,3-dioxolan-2-yl)ethyl]-12-cyclohexyl-3-methoxy-6,7-dihydro-5-oxa-7a-azadibenzo[a,e]azulene-9-carboxamide]	> 7.00
